Data taken from patent US9283242B2, “Uses of dihydro bases” (priority 2013, dated 2016).

Experiments:
[1] = system: HK81 (AlkB+) E. coli cells; test: REAP mutagenesis assay, HK81 cells; type: cell-based; details: for Mutagenicity, Average % A / Mutagenicity, Average % G / Mutagenicity, Average % T: (c) HK81
Text: (§1) All E. coli strains used in this work contain the F′ episome, which enables infection by M13 phage. GW5100 strain was used for large scale preparation of M13 phage DNA, SCS 110 (JM110, end Al) was used for amplification of progeny phage post-electroporation, and NR9050 was the strain of choice for double agar plating with X-GAL for blue-clear detection of plaques. The E. coli strains used to replicate lesion-containing phage were HK81 (as AB1157, but nalA) and HK82 (as AB1157, but nalA alkB22; AlkB-deficient).
(§2) Lesion-containing genomes were mixed with the competitor genome (80:20 molar ratio) and electroporated in triplicate into 100 μl competent cells using a 2 mm-gap cuvette and a BTX electroporator set to 2.5 kV and 125 a Typical pulse lengths were 4.9 msec. The cells were immediately transferred to 10 ml LB and an aliquot was immediately plated using the agar overlay method to verify that a minimum of 10^5 independent initial electroporation events occurred in 10 ml of culture. Incubation for 6 h at 37° C. with aeration generated the progeny phage, which were then reamplified in SCS 110 cells (10 μl overnight culture and 100 μl of the 6 h supernatant in 10 ml LB) to dilute out the residual genomic DNA used for electroporation. Single-stranded M13 progeny phage DNA was isolated from 1.4 ml of supernatant using a Q1Aprep Spin M13 Kit with final DNA suspension in 100 μl elution buffer. CRAB forward and reverse primers were used to amplify the region of interest from 15 μl per Q1Aprep elution sample in a total volume of 25 μl containing 50 pmol of each primer, 1×Pfu Turbo buffer, 1.25 U Pfu Turbo DNA polymerase and […] of each dNTP. The PCR program used 30 cycles of 67° C. (1 min) annealing and 72° C. (1 min) extensions. After purification using QIAQUICK PCR purification columns, 4 μl of the PCR product were treated with BbsI (1.5 U) and SAP (0.3 U) in a total volume of 6 μl by incubating at 37° C. for 4 h. After phosphatase inactivation, (80° C. for 5 min), the 5′ ends were then radiolabeled using [γ-^32P]-ATP (1.66 pmol, 10 μCi/μl, 6000 Ci/mmol), cold ATP (16 pmol) and 5 U of OPTIKINASE at 37° C. for 30 min. Following the kinase inactivation at 65° C. for 20 min, the labeled product was then trimmed by HaeIII (10 U in a final volume of 10 μl) at 37° C. for 2 h, and diluted 1:1 in formamide loading dye. PAGE separation on a 20% denaturing gel, run for about 3.5 h at 550 V, until the xylene cyanol dye migrated 10.5 cm, yielded two bands for each sample: an 18-mer originating from the lesion-containing genome and a 21-mer originating from the competitor genome. The gels were visualized on a phosphorimager (Typhoon 7000, GE Healthcare Life Sciences); the band intensities were quantified using IMAGEJ software (National Institutes of Health). Lesion bypass was calculated as the percentage ratio of the intensity of the 18-mer band (lesion signal) to the intensity of the 21-mer band (competitor signal).
(§3) The REAP assay methodology is identical to the CRAB assay except for the PCR primers, which amplified only the progeny DNA originating from the lesion-carrying genomes. Following electrophoresis, the 18-mer bands were excised from the gel, crushed and extracted with 200 μl water. After desalting with SEPHADEX G-50 Fine resin spin columns, the samples were lyophilized to dryness, resuspended in 5 μl containing 1 μg P1 Nuclease in 30 mM sodium acetate (pH 5.3) and 10 mM zinc chloride, and incubated at 50° C. for 1 h. One μl of each sample was then spotted onto PEI-TLC plates and separated using 200 ml of a saturated solution of (NH4)2HPO4 adjusted to pH 5.8. After 24 h of development, the TLC plates were air-dried and quantified using phosphorimagery. […]

HK82-SOS = test: REAP mutagenesis assay, HK82-SOS cells; type: cell-based, E. coli; details: (b) HK82-SOS
Text: as §1, §2, §3

[2] = system: HK82 (AlkB−) E. coli cells; type: cell-based; details: for Mutagenicity, Average % A / Mutagenicity, Average % C / Mutagenicity, Average % G / Mutagenicity, Average % T: (a) HK82; for base pairing / mutagenicity (in words): FIGS. 18C, 18E, m3C in repair deficient cells
HK82SOS = test: CRAB lesion bypass assay, HK82SOS cells; type: cell-based, E. coli; details: percentage relative to unmodified control genome
Text: as §1
as §2, with “After purification using QIAQUICK PCR purification columns, 4 μl of the PCR product were treated with BbsI (1.5 U) and SAP (0.3 U) in a total volume of 6 μl by incubating at 37° C. for 4 h. After phosphatase inactivation, (80° C. for 5 min), the 5′ ends were then radiolabeled using [γ-^32P]-ATP (1.66 pmol, 10 μCi/μl, 6000 Ci/mmol), cold ATP (16 pmol) and 5 U of OPTIKINASE at 37° C. for 30 min. Following the kinase inactivation at 65° C. for 20 min, the labeled product was then trimmed by HaeIII (10 U in a final volume of 10 μl) at 37° C. for 2 h, and diluted 1:1 in formamide loading dye. PAGE separation on a 20% denaturing gel, run for about 3.5 h at 550 V, until the xylene cyanol dye migrated 10.5 cm, yielded two bands for each sample: an 18-mer originating from the lesion-containing genome and a 21-mer originating from the competitor genome.” left out, “signal). […]” for “signal).”

[3] = system: HK82 (AlkB−) E. coli cells; type: cell-based; details: for Polymerase bypass efficiency, Avg.: HK82, percentage relative to unmodified control genome, triplicate
[4] = in vitro and in vivo replication of a single-stranded vector containing a single KP1212

SMILES | Mutagenicity, Average % C [1] [%] | Mutagenicity, Average % A [1] [%] | Mutagenicity, Average % G [1] [%] | Mutagenicity, Average % T [1] [%] | Mutagenicity, Average % A (HK82-SOS) [%] | Mutagenicity, Average % G (HK82-SOS) [%] | Mutagenicity, Average % T (HK82-SOS) [%] | Mutagenicity, Average % A [2] [%] | Mutagenicity, Average % C [2] [%] | Mutagenicity, Average % G [2] [%] | Mutagenicity, Average % T [2] [%] | base pairing / mutagenicity (in words) [2] | Polymerase bypass efficiency, Avg. (HK82SOS) [%] | Polymerase bypass efficiency, Avg. [3] [%] | also measured
NC1=NC(=O)N([C@H]2C[C@H](O)[C@@H](CO)O2)CN1 [KP1212, 5-aza-5,6-dihydro-2′-deoxycytidine] | 90.2 | 0.2 | 0.1 | 9.5 | 0.1 | 0.2 | 10.3 | 0.0 | 89.1 | 0.4 | 10.5 | mutagenic both in vitro and in vivo | 124 | 91 | Mutagenicity, Average % C (HK82-SOS): 89.4%; in vivo mutation frequency ([2]; frequency of pairing with any non-G base (A)): approximately 10%; paired with A [2, 4]: 10%; paired with G [2, 4]: 90%; pairing with A in vivo ([2]; in vivo, E. coli (FIG. 18E)): 10%; pairing with G in vivo ([2]; in vivo, E. coli (FIG. 18E)): 90%; mutation frequency ([2]; observed in vitro and in vivo in this study): 10%; replication block / toxicity to replication ([3]; E. coli (FIG. 18D), for m3C cells that lack AlkB): not to be a replication block
Nc1ccn([C@H]2C[C@H](O)[C@@H](CO)O2)c(=O)n1 [dC, deoxycytidine] | 99.9 | 0.1 | 0.0 | 0.0 | 0.1 | 0.0 | 0.0 | 0.0 | 100.0 | 0.0 | 0.0 | only pairs with G | 100 | 100 | 
